Test results reported in ChEMBL document CHEMBL2440076, “New triarylpyrazoles as broad-spectrum anticancer agents: design, synthesis, and biological evaluation” (Eur J Med Chem, 2013).

Columns and labels:
Assay type in all cases: functional
NCI-H23 [1] = assay: Growth inhibition of human NCI-H23 cells assessed as cell growth at 5X10'-6 M after 48 hrs by sulforhodamine B assay; conditions: NCI-H23, 48 h, read-out: Activity
OVCAR-4 = assay: Growth inhibition of human OVCAR4 cells assessed as cell growth at 5X10'-6 M after 48 hrs by sulforhodamine B assay; conditions: OVCAR-4, 48 h, read-out: Activity
CCRF-CEM = assay: Growth inhibition of human CCRF-CEM cells assessed as cell growth at 3X10'-5 M after 48 hrs by sulforhodamine B assay; conditions: read-out: Activity
U-251 = assay: Growth inhibition of human U251 cells assessed as cell growth at 3X10'-6 M after 48 hrs by sulforhodamine B assay; conditions: U-251, 48 h, read-out: Activity
MDA-MB-468 [2] = assay: Growth inhibition of human MDA-MB-468 cells assessed as cell growth at 3X10'-6 M after 48 hrs by sulforhodamine B assay; conditions: MDA-MB-468, 48 h, read-out: Activity
HCT-116 [3] = assay: Growth inhibition of human HCT116 cells assessed as cell growth at 3X10'-7 M after 48 hrs by sulforhodamine B assay; conditions: HCT-116, 48 h, read-out: Activity
DU-145 = assay: Growth inhibition of human DU145 cells assessed as cell growth at 3X10'-5 M after 48 hrs by sulforhodamine B assay; conditions: DU-145, 48 h, read-out: Activity
NCI-H322M = assay: Growth inhibition of human NCI-H322M cells assessed as cell growth at 3X10'-9 M after 48 hrs by sulforhodamine B assay; conditions: read-out: Activity
MDA-MB-468 [4] = assay: Growth inhibition of human MDA-MB-468 cells assessed as cell growth at 3X10'-9 M after 48 hrs by sulforhodamine B assay; conditions: MDA-MB-468, 48 h, read-out: Activity
KM12 = assay: Growth inhibition of human KM12 cells assessed as cell growth at 3X10'-9 M after 48 hrs by sulforhodamine B assay; conditions: KM12, 48 h, read-out: Activity
HCT-15 [5] = assay: Growth inhibition of human HCT15 cells assessed as cell growth at 3X10'-7 M after 48 hrs by sulforhodamine B assay; conditions: HCT-15, 48 h, read-out: Activity
UACC-257 [6] = assay: Growth inhibition of human UACC257 cells assessed as cell growth at 3X10'-8 M after 48 hrs by sulforhodamine B assay; conditions: UACC-257, 48 h, read-out: Activity
SNB-19 [7] = assay: Growth inhibition of human SNB19 cells assessed as cell growth at 3X10'-7 M after 48 hrs by sulforhodamine B assay; conditions: SNB-19, 48 h, read-out: Activity
A549 [8] = assay: Growth inhibition of human A549/ATCC cells assessed as cell growth at 3X10'-9 M after 48 hrs by sulforhodamine B assay; conditions: A549, 48 h, read-out: Activity
HCT-15 [9] = assay: Growth inhibition of human HCT15 cells assessed as cell growth at 3X10'-6 M after 48 hrs by sulforhodamine B assay; conditions: HCT-15, 48 h, read-out: Activity
SK-OV-3 = assay: Growth inhibition of human SKOV3 cells assessed as cell growth at 3X10'-5 M after 48 hrs by sulforhodamine B assay; conditions: SK-OV-3, 48 h, read-out: Activity
NCI-H226 [10] = assay: Growth inhibition of human NCI-H226 cells assessed as cell growth at 3X10'-6 M after 48 hrs by sulforhodamine B assay; conditions: NCI-H226, 48 h, read-out: Activity
LOX IMVI = assay: Growth inhibition of human LOXIMVI cells assessed as cell growth at 3X10'-9 M after 48 hrs by sulforhodamine B assay; conditions: read-out: Activity
NCI-H226 [11] = assay: Growth inhibition of human NCI-H226 cells assessed as cell growth at 3X10'-8 M after 48 hrs by sulforhodamine B assay; conditions: NCI-H226, 48 h, read-out: Activity
[12] = Growth inhibition of human Hs 578T cells assessed as cell growth at 3X10'-8 M after 48 hrs by sulforhodamine B assay; conditions: read-out: Activity
A549 [13] = assay: Growth inhibition of human A549/ATCC cells assessed as cell growth at 3X10'-7 M after 48 hrs by sulforhodamine B assay; conditions: A549, 48 h, read-out: Activity
MDA-MB-231 = assay: Growth inhibition of human MDA-MB-231 cells assessed as cell growth at 3X10'-5 M after 48 hrs by sulforhodamine B assay; conditions: MDA-MB-231, 48 h, read-out: Activity
HOP-62 = assay: Growth inhibition of human HOP62 cells assessed as cell growth at 3X10'-6 M after 48 hrs by sulforhodamine B assay; conditions: HOP-62, 48 h, read-out: Activity
NCI-H23 [14] = assay: Growth inhibition of human NCI-H23 cells assessed as cell growth at 3X10'-9 M after 48 hrs by sulforhodamine B assay; conditions: NCI-H23, 48 h, read-out: Activity
MDA-MB-468 [15] = assay: Growth inhibition of human MDA-MB-468 cells assessed as cell growth at 3X10'-7 M after 48 hrs by sulforhodamine B assay; conditions: MDA-MB-468, 48 h, read-out: Activity
M14 = assay: Growth inhibition of human M14 cells assessed as cell growth at 3X10'-6 M after 48 hrs by sulforhodamine B assay; conditions: M14, 48 h, read-out: Activity
OVCAR-8 = assay: Growth inhibition of human OVCAR8 cells assessed as cell growth at 3X10'-6 M after 48 hrs by sulforhodamine B assay; conditions: OVCAR-8, 48 h, read-out: Activity
HCT-116 [16] = assay: Growth inhibition of human HCT116 cells assessed as cell growth at 3X10'-6 M after 48 hrs by sulforhodamine B assay; conditions: HCT-116, 48 h, read-out: Activity
HCT-116 [17] = assay: Growth inhibition of human HCT116 cells assessed as cell growth at 3X10'-5 M after 48 hrs by sulforhodamine B assay; conditions: HCT-116, 48 h, read-out: Activity
MDA-MB-435 = assay: Growth inhibition of human MDA-MB-435 cells assessed as cell growth at 3X10'-5 M after 48 hrs by sulforhodamine B assay; conditions: MDA-MB-435, 48 h, read-out: Activity
SNB-75 = assay: Growth inhibition of human SNB75 cells assessed as cell growth at 3X10'-7 M after 48 hrs by sulforhodamine B assay; conditions: SNB-75, 48 h, read-out: Activity
UACC-257 [18] = assay: Growth inhibition of human UACC257 cells assessed as cell growth at 3X10'-7 M after 48 hrs by sulforhodamine B assay; conditions: UACC-257, 48 h, read-out: Activity
SNB-19 [19] = assay: Growth inhibition of human SNB19 cells assessed as cell growth at 3X10'-5 M after 48 hrs by sulforhodamine B assay; conditions: SNB-19, 48 h, read-out: Activity
UACC-62 = assay: Growth inhibition of human UACC62 cells assessed as cell growth at 3X10'-8 M after 48 hrs by sulforhodamine B assay; conditions: UACC-62, 48 h, read-out: Activity
A498 = assay: Growth inhibition of human A498 cells assessed as cell growth at 3X10'-6 M after 48 hrs by sulforhodamine B assay; conditions: A498, 48 h, read-out: Activity
786-0 = assay: Growth inhibition of human 786-0 cells assessed as cell growth at 3X10'-9 M after 48 hrs by sulforhodamine B assay; conditions: 786-0, 48 h, read-out: Activity
SK-MEL-28 = assay: Growth inhibition of human SK-MEL-28 cells assessed as cell growth at 3X10'-6 M after 48 hrs by sulforhodamine B assay; conditions: SK-MEL-28, 48 h, read-out: Activity

`COc1cc(-c2nn(-c3cccc(NC(=O)Nc4cc(C(F)(F)F)cc(C(F)(F)F)c4)c3)cc2-c2ccncc2)ccc1Cl` gave a growth at 5 µM (NCI-H23 [1]) of -18% and a growth at 5 µM (OVCAR-4) of 8%.

`COc1cc(-c2nn(-c3cccc(NC(=O)Nc4ccc(Cl)c(Cl)c4)c3)cc2-c2ccncc2)ccc1Cl` showed a growth at 5 µM (OVCAR-4) of 6%.

`COc1cc(-c2nn(-c3cccc(NC(=O)c4cccc(C(F)(F)F)c4)c3)cc2-c2ccncc2)ccc1Cl` showed a growth at 5 µM (NCI-H23 [1]) of 13% and a growth at 5 µM (OVCAR-4) of 34%.

`O=C(Nc1cccc(-n2cc(-c3ccncc3)c(-c3ccc(Cl)c(O)c3)n2)c1)Nc1ccc(Cl)c(C(F)(F)F)c1` showed a growth at 30 µM (CCRF-CEM) of -14%, a growth at 3 µM (U-251) of -61% and a growth at 3 µM (MDA-MB-468 [2]) of -27%. The growth at 0.3 µM (HCT-116 [3]) was 94%, the growth at 30 µM (DU-145) was -58% and the growth at 0.003 µM (NCI-H322M) was 97%. For the same compound, the growth at 0.003 µM (MDA-MB-468 [4]) was 89%, the growth at 0.003 µM (KM12) was 101% and the growth at 0.3 µM (HCT-15 [5]) was 84%. The growth at 0.03 µM (UACC-257 [6]) was 94%, the growth at 0.3 µM (SNB-19 [7]) was 98% and the growth at 0.003 µM (A549 [8]) was 98%. It also gave a growth at 3 µM (HCT-15 [9]) of 4%, a growth at 30 µM (SK-OV-3) of -11% and a growth at 3 µM (NCI-H226 [10]) of 30%. It also gave a growth at 0.003 µM (LOX IMVI) of 100%, a growth at 0.03 µM (NCI-H226 [11]) of 86% and a growth at 0.03 µM [12] of 88%. It also gave a growth at 0.3 µM (A549 [13]) of 86%, a growth at 30 µM (MDA-MB-231) of -60% and a growth at 3 µM (HOP-62) of 11%. The growth at 0.003 µM (NCI-H23 [14]) was 97%, the growth at 0.3 µM (MDA-MB-468 [15]) was 72% and the growth at 3 µM (M14) was -7%. It also gave a growth at 3 µM (OVCAR-8) of -16%, a growth at 3 µM (HCT-116 [16]) of 4% and a growth at 30 µM (HCT-116 [17]) of -43%. The growth at 30 µM (MDA-MB-435) was -54%, the growth at 0.3 µM (SNB-75) was 74% and the growth at 0.3 µM (UACC-257 [18]) was 93%. The growth at 30 µM (SNB-19 [19]) was -42%, the growth at 0.03 µM (UACC-62) was 95% and the growth at 3 µM (A498) was 24%. The growth at 0.003 µM (786-0) was 98% and the growth at 3 µM (SK-MEL-28) was 1%.

With `O=C(Nc1cccc(-n2cc(-c3ccncc3)c(-c3ccc(Cl)c(O)c3)n2)c1)c1ccc(N2CCOCC2)c(C(F)(F)F)c1` the growth at 5 µM (NCI-H23 [1]) was 46% and the growth at 5 µM (OVCAR-4) was 80%.
